Consider five compounds from ChEMBL document CHEMBL1137109, “Structure-based virtual screening and biological evaluation of potent and selective ADAM12 inhibitors” (Bioorg Med Chem Lett, 2004).

Experiment [1] addresses T1, Disintegrin and metalloproteinase domain-containing protein 12 (Homo sapiens, UniProt O43184).
T1 sequence (O43184 whole entry): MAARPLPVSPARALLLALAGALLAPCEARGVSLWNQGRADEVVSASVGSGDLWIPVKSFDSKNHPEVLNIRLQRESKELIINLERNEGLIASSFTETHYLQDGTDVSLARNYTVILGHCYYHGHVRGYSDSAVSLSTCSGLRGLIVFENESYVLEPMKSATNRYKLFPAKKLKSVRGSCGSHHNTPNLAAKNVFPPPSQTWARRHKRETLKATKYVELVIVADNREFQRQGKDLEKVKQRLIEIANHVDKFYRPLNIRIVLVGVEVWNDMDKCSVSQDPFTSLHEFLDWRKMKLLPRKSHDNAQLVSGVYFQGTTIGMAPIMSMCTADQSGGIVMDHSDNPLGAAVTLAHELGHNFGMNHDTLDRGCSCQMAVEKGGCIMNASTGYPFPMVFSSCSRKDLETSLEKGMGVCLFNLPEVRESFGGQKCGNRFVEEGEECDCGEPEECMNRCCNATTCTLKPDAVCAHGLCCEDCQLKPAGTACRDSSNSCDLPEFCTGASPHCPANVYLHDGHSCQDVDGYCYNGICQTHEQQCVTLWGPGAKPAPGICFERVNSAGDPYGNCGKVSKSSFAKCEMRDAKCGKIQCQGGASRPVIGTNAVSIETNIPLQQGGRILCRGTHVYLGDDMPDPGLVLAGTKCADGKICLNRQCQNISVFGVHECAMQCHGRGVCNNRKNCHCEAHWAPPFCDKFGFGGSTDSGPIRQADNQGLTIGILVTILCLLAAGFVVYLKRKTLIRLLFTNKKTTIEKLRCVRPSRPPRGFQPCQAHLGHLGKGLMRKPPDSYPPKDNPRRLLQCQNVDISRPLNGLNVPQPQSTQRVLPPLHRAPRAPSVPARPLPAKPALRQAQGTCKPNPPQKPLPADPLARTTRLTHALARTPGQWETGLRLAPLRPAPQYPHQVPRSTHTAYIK
In words: Inhibition of A disintegrin and metalloprotease domain 12 (ADAM12) binding in cell based assay.

Experiment [2] addresses T2, Disintegrin and metalloproteinase domain-containing protein 10 (Homo sapiens, UniProt O14672).
T2 sequence (O14672 whole entry): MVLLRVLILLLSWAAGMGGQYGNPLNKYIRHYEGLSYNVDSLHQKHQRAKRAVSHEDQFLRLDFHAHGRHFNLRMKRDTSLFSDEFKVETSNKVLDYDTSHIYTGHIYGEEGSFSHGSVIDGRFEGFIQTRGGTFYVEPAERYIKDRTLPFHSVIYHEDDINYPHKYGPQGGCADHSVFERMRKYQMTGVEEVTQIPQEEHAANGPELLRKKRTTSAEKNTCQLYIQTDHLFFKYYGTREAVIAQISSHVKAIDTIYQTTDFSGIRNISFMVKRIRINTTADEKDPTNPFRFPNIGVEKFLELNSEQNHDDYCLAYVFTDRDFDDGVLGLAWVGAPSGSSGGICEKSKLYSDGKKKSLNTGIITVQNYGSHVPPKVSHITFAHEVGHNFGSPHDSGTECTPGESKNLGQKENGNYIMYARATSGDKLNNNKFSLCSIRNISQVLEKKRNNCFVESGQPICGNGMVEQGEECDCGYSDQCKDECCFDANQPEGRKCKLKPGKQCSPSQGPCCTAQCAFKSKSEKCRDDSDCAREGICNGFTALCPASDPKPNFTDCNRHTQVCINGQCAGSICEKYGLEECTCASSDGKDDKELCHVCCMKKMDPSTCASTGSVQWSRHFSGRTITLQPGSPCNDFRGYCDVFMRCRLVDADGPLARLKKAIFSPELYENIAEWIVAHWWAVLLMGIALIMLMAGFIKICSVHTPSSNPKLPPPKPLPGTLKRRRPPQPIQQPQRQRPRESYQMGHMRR
The experiment in a line: In vitro inhibition of A disintegrin and metalloprotease domain 10 (ADAM10).

In experiment [3] the target is T3, Disintegrin and metalloproteinase domain-containing protein 9 (Homo sapiens, UniProt Q13443).
T3 sequence (Q13443 whole entry): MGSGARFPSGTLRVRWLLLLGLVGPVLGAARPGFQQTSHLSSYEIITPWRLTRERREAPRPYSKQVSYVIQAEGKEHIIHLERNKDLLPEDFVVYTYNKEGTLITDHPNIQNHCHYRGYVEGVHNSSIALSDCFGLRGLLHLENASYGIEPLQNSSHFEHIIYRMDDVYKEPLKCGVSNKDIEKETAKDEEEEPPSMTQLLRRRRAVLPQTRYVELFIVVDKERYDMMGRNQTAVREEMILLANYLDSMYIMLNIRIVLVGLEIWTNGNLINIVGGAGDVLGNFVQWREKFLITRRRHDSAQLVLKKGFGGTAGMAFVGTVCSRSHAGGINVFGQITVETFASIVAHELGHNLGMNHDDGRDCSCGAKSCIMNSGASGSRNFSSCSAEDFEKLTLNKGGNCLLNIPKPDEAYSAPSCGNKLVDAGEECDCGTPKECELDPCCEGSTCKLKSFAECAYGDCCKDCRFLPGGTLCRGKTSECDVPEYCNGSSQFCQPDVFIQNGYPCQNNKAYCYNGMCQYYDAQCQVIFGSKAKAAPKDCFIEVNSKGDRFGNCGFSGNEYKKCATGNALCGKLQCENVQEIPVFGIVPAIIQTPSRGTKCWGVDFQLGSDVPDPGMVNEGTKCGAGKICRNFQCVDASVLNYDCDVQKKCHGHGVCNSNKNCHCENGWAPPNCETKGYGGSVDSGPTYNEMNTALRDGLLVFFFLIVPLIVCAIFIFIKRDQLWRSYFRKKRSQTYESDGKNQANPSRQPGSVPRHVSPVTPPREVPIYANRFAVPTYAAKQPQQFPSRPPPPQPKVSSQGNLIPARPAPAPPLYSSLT
The experiment in a line: In vitro inhibition of A disintegrin and metalloprotease domain 9 (ADAM9).

The target of experiment [4] is Disintegrin and metalloproteinase domain-containing protein 17 (Homo sapiens, UniProt P78536). The experiment in a line: In vitro inhibition of A disintegrin and metalloprotease domain 17 (ADAM17, TACE).
Sequence of Disintegrin and metalloproteinase domain-containing protein 17 (P78536 whole entry, the tested form may be a part): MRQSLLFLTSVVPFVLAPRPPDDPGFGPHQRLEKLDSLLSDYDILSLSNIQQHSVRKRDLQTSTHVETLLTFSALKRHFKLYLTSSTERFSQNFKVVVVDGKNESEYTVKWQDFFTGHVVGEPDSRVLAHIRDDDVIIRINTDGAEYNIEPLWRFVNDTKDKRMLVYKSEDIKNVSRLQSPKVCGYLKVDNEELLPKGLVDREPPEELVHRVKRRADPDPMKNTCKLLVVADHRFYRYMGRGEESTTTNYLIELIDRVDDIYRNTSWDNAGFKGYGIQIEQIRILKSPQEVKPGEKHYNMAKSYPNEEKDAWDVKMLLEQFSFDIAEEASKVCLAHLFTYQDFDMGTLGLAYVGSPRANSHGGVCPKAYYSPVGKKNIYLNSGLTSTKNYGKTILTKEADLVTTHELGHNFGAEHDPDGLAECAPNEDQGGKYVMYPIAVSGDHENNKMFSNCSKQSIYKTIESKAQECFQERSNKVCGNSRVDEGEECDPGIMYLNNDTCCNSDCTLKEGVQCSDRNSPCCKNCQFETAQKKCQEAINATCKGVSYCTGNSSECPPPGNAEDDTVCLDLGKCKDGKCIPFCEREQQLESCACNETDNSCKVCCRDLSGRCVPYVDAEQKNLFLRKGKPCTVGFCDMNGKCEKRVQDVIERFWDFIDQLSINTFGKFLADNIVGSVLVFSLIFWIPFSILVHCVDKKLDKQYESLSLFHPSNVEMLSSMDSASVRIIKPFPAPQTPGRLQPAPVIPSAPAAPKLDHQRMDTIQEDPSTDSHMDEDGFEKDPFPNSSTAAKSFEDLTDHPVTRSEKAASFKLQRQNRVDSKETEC

For the compound `CC(C)C(NC(=O)/C(=C\c1ccccc1F)NC(=O)c1ccccc1)C(=O)O` (stereo unspecified), the half-inhibitory concentration (IC50) is 40.5 nM in experiment [1] and more than 10500 nM in experiment [2].
`CC(NC(=O)/C(=C\c1ccc(Br)cc1)NC(=O)c1ccc(Br)o1)C(=O)O` (stereo unspecified) gave an IC50 in experiment [1] of 24.8 nM.
Take `CC(NC(=O)/C(=C\c1ccco1)NC(=O)c1ccco1)C(=O)O` (stereo unspecified): the 50% inhibitory concentration (IC50) stood at 42.3 nM in experiment [1] and 10500 nM in experiment [2].
With `O=C(O)CNC(=O)/C(=C\c1cccc(Br)c1)NC(=O)c1ccco1`, the half-maximal inhibitory concentration (IC50) in experiment [1] is 16.7 nM; in experiment [2] it was more than 10500 nM.
Regarding `CNC(=O)[C@H](Cc1c[nH]c2ccccc12)NC(=O)[C@@H](CC(=O)NO)CC(C)C` [ILOMASTAT], the IC50 was found to be 1 nM in experiment [3], 5.93 nM in experiment [1], 7.5 nM in experiment [4] and 8.1 nM in experiment [2].

One may read the IC50 as the concentration needed to halve the response being measured. Higher therefore signals weaker potency.
